From publication PMC10350920, “Development of a 2,4-Diaminothiazole Series for the Treatment of Human African Trypanosomiasis Highlights the Importance of Static–Cidal Screening of Analogues” (Journal of Medicinal Chemistry, 2023)
Values joined by “and” are separate entries in the source; they are usually repeats but may differ in a detail not shown here. Equal values may be shown once. “Also recorded” adds a separate entry of the source. Read-outs that look alike come from different tables or passages of the source.

How the values were obtained:
[1] = Mouse liver microsomal intrinsic clearance; type: in vitro ADME
In short: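 Compound (0.5 μM) incubated with liver microsomes (0.5 mg/mL, 50 mM potassium phosphate pH 7.4) and excess NADPH; samples quenched at 0–30 min and analysed by UPLC–MS/MS. Rate constant from exponential decay of compound/internal standard ratio; CLint scaled with 52.5 mg protein/g liver.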

[2] = Equilibrium dialysis, free fraction in brain; type: in vitro ADME, mouse
Experimental: In brief, a 96-well equilibrium dialysis apparatus was used to determine the free fraction in plasma and the brain (HT Dialysis LLC, Gales Ferry, CT). Isotonic buffer was prepared using 8.69 g of Na2HPO4, 1.9 g of KH2PO4, and 4.11 g of NaCl dissolved in 1 L of Milli-Q water, and the pH was adjusted to 7.4. Artificial CSF was prepared using 3.652 g of NaCl, 93.2 mg of KCl, 119.96 mg of MgCl2, 92.61 mg of CaCl2, and 268 mg of Na2HPO4 heptahydrate dissolved in 0.5 L of water, and the pH was adjusted to 7.4. Membranes [12–14 (plasma) or 6–9 (brain) kDA cutoff] were conditioned in deionized water for 60 min, followed by conditioning in 80:20 deionized water/ethanol for 20 min, and then rinsed in isotonic buffer (plasma) or […] (brain) before use. Female CD1 mouse plasma was defrosted and centrifuged for 10 min at 3000 rpm (Allegra X12-R, Beckman Coulter, USA). The control mouse brain was homogenized in two volumes of artificial CSF in a Covaris S2 acoustic homogenizer. […] All samples were analyzed by means of UPLC/MS/MS on a Quattro Premier XE or Micro TQs mass spectrometer (Waters Corporation, USA). The unbound fraction was determined as the ratio of the peak area in the buffer to that in the matrix.

[3] = Mouse brain penetration (brain:blood ratio); type: in vivo, female NMRI mice; settings: mice, bolus of test compound, total compound
Experimental: Medicines for HAT are required to treat both acute and chronic infections, where parasites pass through the blood/brain barrier and enter the CNS. With this in mind, mice were dosed with an […] bolus of our test compounds, and compound concentrations in blood and brain were determined by UPLC–MS/MS. […] The brain fraction unbound was 0.0063 for 16 and 0.0313 for 38. Brain penetration of the series as a whole tracked with the generally accepted rules of CNS penetration, with a lower topological PSA (TPSA) and molecular weight compounds having an increased B/B ratio (Table S2 and Figure S1). However, the link between log P and the B/B ratio was slightly less convincing. […] This difference could be explained by 18 being a substrate for the P-glycoprotein efflux pump.
Each compound was dosed as an IV bolus at 10 mg kg^–1 dissolved in 15% solutol/Milli-Q (dose volume 10 mL kg^–1) to female NMRI mice (n = 3). At 30 min following the IV bolus of the test compound, mice (n = 3/time point) were placed under terminal anesthesia with isoflurane. A blood sample was taken by cardiac puncture and added to two volumes of distilled water, and the brain was removed. […] For each mouse at each time point, the concentration in the brain (ng g^–1) was divided by the concentration in blood (ng mL^–1) to give a brain: blood ratio.

[4] = tested on: BSF T. b. brucei “single marker” S427; experiment: Drug sensitivity assay with bloodstream-form T. brucei; type: cell-based; settings: for EC50: mean values, number of replicates in parentheses
Experimental: Drug sensitivity assays with BSF T. b. brucei “single marker” S427 and human MRC-5 fibroblasts were conducted as previously described.[43]

[5] = Pharmacokinetics in NMRI mice; type: in vivo, female NMRI mice
Experimental: To determine compound exposure, compounds were dosed by gavage (16, 38) at 10 mg kg^–1 free base (16, 38), dose volume; and 5 mL kg^–1 (16, 38), dose vehicle (10% DMSO/40% PEG400/50% Milli-Q) to female NMRI mice, n = 3/dose level (16), or Sprague Dawley rats (38). Blood samples were taken from each mouse/rat at 5, 15, and 30 min, 1, 2, 4, 6, and 8 h postdose and mixed with two volumes of distilled water. After suitable sample preparation, the concentration of the test compound in blood was determined by UPLC–MS/MS using a Quattro Premier XE (Waters, USA). Pharmacokinetic parameters were derived from the mean blood concentration–time curve using PKsolutions software v 2.0 (Summit Research Services, USA).

T. b. brucei S427 = experiment: Stage 1 efficacy study in NMRI mice; type: in vivo
Experimental: Stage 1 efficacy experiments using T. b. brucei S427 were performed as described,[44] with minor modifications. In brief, male SD rats (38) or female HRN (16) and NMRI (16, 38) mice (3–5 per group) were injected intraperitoneally with 1 × 10^4 BSFs of T. brucei. These BSFs come from a stock of cryopreserved stabilates containing 10% glycerol. The stabilate was suspended in 20 mM Hanks’ balanced salt solution with glucose to obtain a trypanosome concentration of 5 × 10^4 cells mL^–1. Each mouse was injected with 0.2 mL. […] Dose concentrations were 1.25, 2.5, 5, 7.5, 10, 30, and 50 mg kg^–1 free base (16) or 100 mg kg^–1 free base (38). The doses were prepared fresh daily, using 5% DMSO/40% PEG400/55% Milli-Q (16) or 15% solutol/85% Milli-Q (38), and the dose volume was 10 mL kg^–1. One group of three mice was an untreated control group.

[6] = 100 mg kg^–1 IP, assuming linearity of exposure

For CC(C)(O)CC(=O)c1sc(Nc2ccc(F)c(F)c2)nc1N [Compound 38, 1-(4-Amino-2-((3,4-difluorophenyl)amino)thiazol-5-yl)-3-hydroxy-3-methylbutan-1-one], which “CLint (mouse)” value [1] is on record?
The value was 2.2 mL·min/g.

And the fraction unbound at 5 h, 10 μg mL^–1 ([2]; mouse, brain homogenate, pH 7.4, read-out: brain free fraction (Fu, fraction unbound))?
The fraction unbound at 5 h, 10 μg mL^–1 was 0.0313.

What about the Kp at 30 min ([3]; female, NMRI, mouse, brain and blood, 10 mg kg^–1, read-out: brain/blood (B/B) ratio) of the same compound?
The Kp at 30 min was 1.4.

What about the EC90 ([4]; Trypanosoma brucei, T. brucei) of the same compound?
Its EC90 is 0.131 µg/mL and 400 nM.

What about the EC50 ([4]; Trypanosoma brucei) of the same compound?
The EC50 was 180 nM.

And the “free Cmax in blood, extrapolated” value [5, 6]?
The value was 16 µM.

What about the “free Cmax, extrapolated” value [5, 6] of the same compound?
The value was 5200 ng mL^–1.

And the “Cmax (total blood)” value ([5]; NMRI mice, IP, 50 mg kg^–1)?
Its value is 18,000 ng mL^–1.

And the Cmax ([5]; female, NMRI, mouse, whole blood, mice, IP, 50 mg kg^–1, read-out: total blood Cmax)?
Its Cmax is 55 µM.

And the AUC ([5]; female, mouse, whole blood, NMRI mice, IP, 50 mg kg^–1, read-out: AUC (converted))?
The AUC was 31700 ng·h/mL.

What about the Tmax ([5]; female, mouse, whole blood, NMRI mice, IP, 50 mg kg^–1, read-out: Tmax) of the same compound?
The Tmax was 30 min.

And the “free Cmax in the brain, extrapolated” value ([5]; mice, 100 mg kg^–1 IP)?
The value was 4.6 µM.

And the “stage 1 efficacy, parasitemia” value (T. b. brucei S427; bid 4 days 100 mg kg^–1)?
The value was “no reduction in parasitemia”.

For “(4-Amino-2-(cyclohexylamino)thiazol-5-yl)(2,6-difluorophenyl)methanone [Compound 16]”, which “CLint (mouse)” value [1] is on record?
Its value is 15 mL·min/g.

What about the “brain free fraction (Fu, fraction unbound)” value ([2]; brain) of the same compound?
Its value is 0.0063.

And the “brain/blood (B/B) ratio” value [3]?
Its value is 3.3.

And the EC50 [4]?
Its EC50 is 110 nM.

What about the AUC ([5]; NMRI mice, IP, 10 mg kg^–1) of the same compound?
Its AUC is 66,000 ng mL h^–1.

What about the Tmax ([5]; NMRI mice, IP, 10 mg kg^–1) of the same compound?
Its Tmax is 15 min.

What about the AUC ([5]; NMRI mice, PO, 10 mg kg^–1) of the same compound?
The AUC was 5700 ng mL h^–1.

What about the Cmax ([5]; NMRI mice, PO, 10 mg kg^–1) of the same compound?
The Cmax was 33 ng mL^–1.

What about the Tmax ([5]; NMRI mice, PO, 10 mg kg^–1) of the same compound?
Its Tmax is 30 min.

And the “stage 1 efficacy (cure = no parasitemia for 30 days)” value (T. b. brucei S427; IP 10 mg kg^–1 twice daily for 4 days)?
The value was “complete cure; also recorded: efficacious”.
